Values after ≈ are worked out from the molar mass of the structure shown.
Key:
nausea and vomiting = conditions: anti-emetic; cited from earlier work
[1] = Aqueous solubility of meclizine versus pH, 0.1 M citric acid buffer and ddH2O, HPLC; type: physicochemical; conditions: for solubility at 24 h: thermodynamic from solid
Description: Citric acid (0.1M) buffer solutions are prepared with pH's of 1.0; 2.0; 3.0; 4.0, and 5.0 in ddH2O (de-oxygenated water by purging with nitrogen gas). 2 ml of each buffer are placed in 4 ml vials and 2 ml ddH2O is placed in a 4 ml vial. 20 mg meclizine HCl is added to each vial. The vials are sealed and are shaken on an orbital shaker for 24 hours at 200 rpm. Following the shaking, the vial contents are filtered through 0.45 μm filters to remove any excess solute. The remaining solution is assayed by HPLC for meclizine content.

physchem [2] = conditions: 25 °C, pH 4, aqueous buffer, thermodynamic from solid, aqueous solubility of meclizine at pH 4.0
Description: (§1) Five HPBCD and five SBECD solutions in 0.5 M citric acid buffer (pH of 4.0) are prepared, with HPBCD and SBECD concentrations of 0; 50; 100; 150 and 200 mg/ml. 3 ml of the various buffered HPBCD and SBECD solutions are placed in 4 ml vials. 50-100 mg meclizine is added to each vial, such that excess meclizine is available. The vials are sealed and are shaken on an orbital shaker for 24 hours at 200 rpm and 25° C. Following the shaking, the vials are filtered through 0.45 μm filters to remove any excess solute. The remaining solution is assayed by HPLC for meclizine content.

physchem [3] = conditions: 25 °C, pH 3, aqueous buffer, thermodynamic from solid, aqueous solubility of meclizine at pH 3.0
Description: as §1, with “3.0)” for “4.0)”, “of” for “of 0;”, “75-100” for “50-100”, “provided.” for “available.”

[4] = Solubility of meclizine with cyclodextrins in ddH2O, HPLC; type: physicochemical; conditions: alpha-CD 0-100 mg/ml, gamma-CD, HPBCD and SBECD at 200 mg/ml versus no CD
Description: FIG. 1A depicts solubility data of meclizine complexed with non-chemically modified cyclodextrins (α-CD at 0-100 mg/ml, γ-CD at 200 mg/ml), chemically modified cyclodextrins (HPBCD and SBECD) at 200 mg/ml, and with no CD complexation in ddH2O. Solutions were prepared by adding excess meclizine to ddH2O samples with varying quantities of the different cyclodextrins. These samples were shaken for 24 hours at 200 rpm. Following the shaking, the vial contents were filtered through 0.45 μm filters to remove any excess solute. The remaining solution was assayed by HPLC for meclizine content.

[5] = pH-dependent solubility of meclizine cyclodextrin complexes in 0.5 M citric buffer; type: physicochemical; conditions: HPBCD 200 mg/ml, above pH of about 5, compared with non-chemically modified CDs
[6] = Merck Index, 12th Ed, 984; cited from earlier work

Structure (SMILES)	duration of action (nausea and vomiting)	aqueous solubility of meclizine ([1]; 0.1 M citric acid buffer, about pH 5.0, shaken 24 hours)	solubility at 24 h ([1]; aqueous buffer, 0.1 M citric acid buffer, pH 1.0, shaken 24 hours, read-out: aqueous solubility of meclizine) [µg/mL]	solubility at 24 h ([1]; ddH2O (de-oxygenated water), pH 2, water, ddH2O, measured pH of about 2.0, shaken 24 hours, read-out: aqueous solubility of meclizine in ddH2O) [µg/mL]	solubility at 24 h (physchem [2]) [µg/mL]	solubility at 24 h (physchem [3]) [µg/mL]	solubility of meclizine with cyclodextrins [4]	solubility of meclizine in HPBCD at higher pH [5]	water solubility [6] [g/100 ml]
CN1CCN(C(c2ccccc2)c2ccccc2)CC1 [cyclizine]	1 to 2 h	–	–	–	–	–	–	–	–
Cc1cccc(CN2CCN(C(c3ccccc3)c3ccc(Cl)cc3)CC2)c1 (stereo not shown) [meclizine, 1-(4-chlorobenzhydryl)-4-(3-methylbenzyl)-piperazine]	up to 24 hours	below the limit of detection	~1500 (≈ 3840 µM)	~3800 (≈ 9720 µM)	~10 (≈ 25.6 µM)	~300 (≈ 767 µM)	improved solubility	improved solubility	–
Cc1cccc(CN2CCN(C(c3ccccc3)c3ccc(Cl)cc3)CC2)c1.Cl.Cl (stereo not shown) [meclizine HCl, 1-(4-chlorobenzhydryl)-4-(3-methylbenzyl)-piperazine dihydrochloride]	–	–	–	–	–	–	–	–	0.1
